Laboratory results reported in ChEMBL document CHEMBL1201862, “PubChem BioAssay data set” (2004).
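Five compound concentrations were applied to cells in 96-well plates for 48 hours; endpoints were derived by simple linear interpolation of the resulting dose-response curve. GI50 marks 50% less growth.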 The source made the active and inactive calls. Rule as the data show it: active = GI50 up to about 1.1 µM and inactive = higher.

Experiments:
Experiment in all cases: NCI-60 cell line screen, 48 h
[1] = test system: BT-549
[2] = test system: MDA-N
[3] = test system: 786-0
[4] = test system: Hs-578T
[5] = test system: MDA-MB-435
[6] = test system: NCI/ADR-RES
[7] = test system: MDA-MB-231
[8] = test system: T47D
[9] = test system: RXF 631

Measured: GI50

O=C(Nc1ccccc1)N1CCN(C(=O)Nc2ccccc2)C1=S
inactive: [1] 30.4 µM | [2] > 100 µM | [3] 37 µM | [4] 35.9 µM | [5] > 100 µM | [6] 41.9 µM | [7] > 100 µM | [8] 40.9 µM

COc1cc(C2c3cc4c(cc3[C@@H](Nc3ccccc3)C3COC(=O)[C@H]23)OCO4)cc(OC)c1O (some centres undefined)
inactive: [6] 2.07 µM

COC(=O)/C=C\n1ncc(=O)[nH]c1=O
inactive: [1] > 100 µM | [2] > 100 µM | [4] > 100 µM | [5] 99.5 µM | [6] > 100 µM | [7] > 100 µM | [8] > 100 µM

N#CCCN(CCC#N)c1ccc(/C=C(/NC(=O)Nc2ccccc2Cl)NC(=O)c2cc([N+](=O)[O-])ccc2Cl)cc1
inactive: [9] > 100 µM

C=C(C)C1Cc2c(c3ccccc3n(C)c2=O)O1 (centres undefined)
inactive: [9] > 100 µM

CCOC(=O)c1csc(NC(=O)CN2CCN(c3ccccc3)CC2)n1
inactive: [2] > 100 µM | [5] > 100 µM | [6] > 100 µM | [7] > 100 µM | [8] 94 µM

CC(=O)Nc1ccc(Sc2nnc(NC(C)=O)s2)cc1
inactive: [2] > 100 µM | [4] > 100 µM | [5] > 100 µM | [6] > 100 µM | [7] > 100 µM | [8] > 100 µM
